Laboratory results reported in ChEMBL document CHEMBL4184203, “A review on the hybrids of hydroxycinnamic acid as multi-target-directed ligands against Alzheimer's disease” (Bioorg Med Chem, 2018).

Molecular target: Amyloid-beta precursor protein (Homo sapiens) (UniProt P05067)
Assay: Inhibition of self-mediated aggregation of amyloid beta (1 to 42 residues) (unknown origin) at 10 uM by Thioflavin T based assay relative to control

Chain of Amyloid-beta precursor protein (Homo sapiens) (P05067 whole entry, the tested form may be a part): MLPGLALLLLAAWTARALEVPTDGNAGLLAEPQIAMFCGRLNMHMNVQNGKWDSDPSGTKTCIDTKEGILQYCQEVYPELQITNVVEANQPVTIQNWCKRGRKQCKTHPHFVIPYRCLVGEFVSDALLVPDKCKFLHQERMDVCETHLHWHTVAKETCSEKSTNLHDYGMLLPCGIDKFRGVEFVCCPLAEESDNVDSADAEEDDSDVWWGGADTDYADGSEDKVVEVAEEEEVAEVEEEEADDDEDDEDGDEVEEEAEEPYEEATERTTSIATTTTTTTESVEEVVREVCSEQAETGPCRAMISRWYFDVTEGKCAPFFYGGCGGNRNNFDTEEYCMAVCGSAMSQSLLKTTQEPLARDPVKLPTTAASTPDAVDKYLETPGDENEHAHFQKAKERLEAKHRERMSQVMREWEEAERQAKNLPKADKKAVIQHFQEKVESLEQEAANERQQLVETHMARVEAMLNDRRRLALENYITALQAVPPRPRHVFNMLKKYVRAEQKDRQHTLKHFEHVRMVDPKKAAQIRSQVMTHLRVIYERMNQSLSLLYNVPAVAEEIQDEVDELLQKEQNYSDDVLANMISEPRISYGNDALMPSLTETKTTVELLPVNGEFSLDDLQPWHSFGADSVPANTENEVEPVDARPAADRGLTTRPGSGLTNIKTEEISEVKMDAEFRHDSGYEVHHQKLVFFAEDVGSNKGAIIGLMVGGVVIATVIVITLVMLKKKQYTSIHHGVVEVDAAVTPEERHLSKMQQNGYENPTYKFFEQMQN

inhibition: 83.7%
Structure (SMILES): COc1cc(/C=C/C(=O)Nc2ccc(-c3ccc(NC(=O)/C=C/c4ccc(O)c(OC)c4)cc3)cc2)ccc1O
